Assay results published in patent US20200038478A1, “POLYPEPTIDE AND COMPOSITION THEREOF FOR TREATING DISEASES OF METABOLIC SYSTEM” (WUHAN GRECTECH CO., LTD., priority 2017, published 2020).
Bridge positions count the residues as written; N and C are the ends. Ends that are not written are not given here.

Legend:
[1] = test system: normal mice; test: Natural extract vs solid-phase synthetic polypeptide, normal mice, subcutaneous injection (Example 7); format: in vivo, Kunming white mice; details: 1 mg/mL at 0.05 ml/10 g, single subcutaneous injection on the back; for Blood glucose level prior to administration: baseline
[2] = test system: normal mice; test: Hypoglycemic effect on normal mice after subcutaneous injection (Example 6); format: in vivo, Kunming white mice; details: for Blood glucose level at 15 min after administration / Blood glucose level at 30 min after administration / Blood glucose level prior to administration: 1 mg/mL at 0.05 ml/10 g, single subcutaneous injection on the back; for Blood glucose level prior to administration: baseline
[3] = test system: normal mice; test: Hypoglycemic effect of synthetic polypeptides on normal mice after subcutaneous injection (Example 9); format: in vivo, Kunming white mice; details: 1 mg/mL at 0.05 ml/10 g, single subcutaneous injection on the back
[4] = molecular target: T1, pepsin (Sus scrofa, UniProt P00791); test: Stability against pepsin in simulated gastric fluid, HPLC (Example 16); format: in vitro ADME; details: pH 1.5, 1 g pepsin per 100 mL, 37° C., 2 hours
T1 construct: purchased Sigma-Aldrich Company Ltd
T1 sequence (P00791 60-385): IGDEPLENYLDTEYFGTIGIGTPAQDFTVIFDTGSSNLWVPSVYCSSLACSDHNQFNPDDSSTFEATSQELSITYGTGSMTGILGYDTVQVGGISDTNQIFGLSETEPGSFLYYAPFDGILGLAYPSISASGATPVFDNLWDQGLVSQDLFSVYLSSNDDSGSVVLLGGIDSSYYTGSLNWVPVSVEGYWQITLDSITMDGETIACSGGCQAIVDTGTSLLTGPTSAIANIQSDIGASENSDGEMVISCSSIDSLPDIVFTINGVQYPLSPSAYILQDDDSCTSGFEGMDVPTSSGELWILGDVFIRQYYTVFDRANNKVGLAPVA
Protocol: (§1) Polypeptides were subject to enzymatic hydrolysis in simulated gastric and simulated intestinal fluids, respectively, to verify whether the polypeptides were resistance to the enzymatic hydrolysis of digestive enzymes. Control experiments were performed with albumin.
Preparation of simulated gastric fluid: water was added to diluted hydrochloric acid with a concentration of 1 mol/L, to adjust the pH to 1.5. 1 g pepsin per 100 mL solution was added, and after homogeneously mixing, the solution was filtered through a 0.22 μm sterile filter for use.
(§2) 10 μL of the polypeptide solution (10 mg/mL) was added to the simulated gastric fluid (1 mL) and simulated intestinal fluid (1 mL), respectively, and after homogeneously mixing, the mixtures were incubated in a water bath at 37° C. for 2 hours.
(§3) 1 mg of dried albumin powder was added to the simulated gastric fluid (1 mL) and simulated intestinal fluid (1 mL), respectively, and after homogeneously mixing, the mixtures were incubateed in a water bath at 37° C. for 2 hours.
(§4) The above enzymatic mixtures were detected by using HPLC.
(§5) Chromatographic conditions: mobile phase, water (containing 0.1% TFA)+acetonitrile (containing 0.1% TFA), gradient elution from 15% to 50% acetonitrile for 25 min, flow rate of 1 mL/min, detection wavelength of 214 nm, injection volume of 20 ul.

[5] = test system: trypsin; test: Stability against trypsin in simulated intestinal fluid, HPLC (Example 16); format: in vitro ADME; details: pH 6.8, 1 g trypsin per 100 mL, 37° C., 2 hours
Protocol: as §1
Preparation of simulated intestinal fluid: 6.8 g of potassium dihydrogen phosphate was dissolved in 500 mL water, 0.4% (w/w) NaOH was added to adjust the pH to 6.8, and water was added to make up 1 L. 1 g trypsin per 100 mL solution was added, and after homogeneously mixing, the solution was filtered through a 0.22 μm sterile filter for use.
as §2, §3, §4, §5

[6] = test system: normal mice; test: Hypoglycemic effect on normal mice after administration by gavage, with or without glucose (Example 11); format: in vivo, Kunming white mice; details: for Blood glucose level prior to administration: baseline
[7] = test system: normal mice; test: Hypoglycemic effect of the polypeptide on normal mice after tail vein injection (Example 3); format: in vivo, Kunming white mice; details: for Blood glucose level at 15 min after administration / Blood glucose level at 30 min after administration / Blood glucose level prior to administration: single tail vein injection; for Blood glucose level prior to administration: baseline
[8] = test system: normal mice; test: Polypeptide vs insulin on normal mice after tail vein injection (Example 10); format: in vivo, Kunming white mice; details: single tail vein injection, polypeptide 2 mg/mL at 0.05 ml/10 g (10 mg/kg), insulin 0.5 U/mL (2.5 U/kg)
[9] = test system: mouse models of type 2 diabetes; test: Polypeptide mixture vs insulin, mouse models of type 2 diabetes, tail vein injection (Example 13); details: KK mice, single tail vein injection, polypeptide 2 mg/mL, insulin 0.5 U/mL, each 0.05 ml/10 g
[10] = test system: mouse models of type 2 diabetes; test: Polypeptide mixture vs insulin, mouse models of type 2 diabetes, subcutaneous injection (Example 14); details: KK mice, single subcutaneous injection on the back, polypeptide 2 mg/mL, insulin 0.5 U/mL, each 0.05 ml/10 g
[11] = test system: mouse models of type 2 diabetes; test: Polypeptide mixture vs insulin, mouse models of type 2 diabetes, intramuscular injection (Example 15); details: KK mice, single intramuscular injection in the lateral thigh, polypeptide 2 mg/mL, insulin 0.5 U/mL, each 0.05 ml/10 g
[12] = Group B, 1 mg/mL polypeptide in saline at 0.10 ml/10 g
[13] = Group C polypeptide+glucose, 1 mg/mL polypeptide in 10% glucose solution at 0.10 ml/10 g
[14] = Group A high-dose, 1 mg/mL at 0.10 ml/10 g
[15] = Group B medium-dose, 1 mg/mL at 0.05 ml/10 g
[16] = Group C low-dose, 1 mg/mL at 0.025 ml/10 g

For “ASCNGVCSPFEMPPCGTSACRCIPVGLVVGYCRNPSG [Polypeptide A] (disulfide 15-32, 3-20, 7-22; listed as Pisum sativum)”, the “Blood glucose level at 15 min after administration” value (“Blood glucose level at 15 min” for short) [1] was 5.2 ± 0.4 mmol/L, the “Blood glucose level at 30 min after administration” value (from here on “Blood glucose level at 30 min”) [1] was 4.4 ± 0.5 mmol/L and the “Blood glucose level at 45 min after administration” value (from here on “Blood glucose level at 45 min”) [1] was 3.6 ± 0.3 mmol/L. For the same substance, the “Blood glucose level at 60 min after administration” value (“Blood glucose level at 60 min” below) [1] was 2.2 ± 0.2 mmol/L and the “Blood glucose level prior to administration” value (shortened to “Blood glucose level prior”) [1] was 6.8 ± 0.5 mmol/L.
In the case of “ASCNGVCSPFEMPPCGSSACRCIPVGLVVGYCRNPSG (disulfide 15-32, 3-20, 7-22) [SEQ ID No. 26]”, the “Blood glucose level at 15 min” value [2] was 5.3 ± 0.4 mmol/L, the “Blood glucose level at 30 min” value [2] was 4.4 ± 0.3 mmol/L and the “Blood glucose level prior” value [2] was 7.1 ± 0.5 mmol/L. The “Blood glucose level at 15 min” value [3] was 5.3 ± 0.4 mmol/L, the “Blood glucose level at 30 min” value [3] was 4.6 ± 0.3 mmol/L and the “Blood glucose level at 45 min” value [3] was 3.2 ± 0.2 mmol/L. For the same substance, the “Blood glucose level at 60 min” value [3] was 2.1 ± 0.2 mmol/L and the “Blood glucose level prior” value ([3]; baseline) was 6.8 ± 0.3 mmol/L.
With “Albumin: Serum albumin (bovine) standard” the “enzymatic hydrolysis in simulated gastric fluid” value [4] was “completely enzymatically hydrolyzed” and the “enzymatic hydrolysis in simulated intestinal fluid” value [5] was “completely enzymatically hydrolyzed”.
“ASCNGVCSPFDIPPCGSPLCRCIPVGLVIGKCRNPYG (disulfide 15-32, 3-20, 7-22; listed as Pisum sativum) [SEQ ID No. 10]” was tested, and the “Blood glucose level at 15 min” value [6, 12] was 6.9 ± 0.3 mmol/L, the “Blood glucose level at 30 min” value [6, 12] was 6.4 ± 0.2 mmol/L and the “Blood glucose level at 45 min” value [6, 12] was 6.1 ± 0.3 mmol/L. The “Blood glucose level at 60 min” value [6, 12] was 6.1 ± 0.2 mmol/L, the “Blood glucose level prior” value [6, 12] was 6.7 ± 0.6 mmol/L and the “Blood glucose level at 15 min” value [6, 13] was 7.1 ± 0.3 mmol/L. The “Blood glucose level at 30 min” value [6, 13] was 6.9 ± 0.2 mmol/L, the “Blood glucose level at 45 min” value [6, 13] was 6.6 ± 0.3 mmol/L and the “Blood glucose level at 60 min” value [6, 13] was 6.2 ± 0.2 mmol/L. For the same substance, the “Blood glucose level prior” value [6, 13] was 6.8 ± 0.4 mmol/L.
For “ASCNGVCSPFEMPPCGTSACRCIPVGLFIGYCRNPSG (disulfide 15-32, 3-20, 7-22; listed as Pisum sativum) [SEQ ID No. 7]”, the “Blood glucose level at 15 min” value [7, 14] was 3.3 ± 0.3 mmol/L, the “Blood glucose level at 30 min” value [7, 14] was 2.1 ± 0.3 mmol/L and the “Blood glucose level prior” value [7, 14] was 7.1 ± 0.5 mmol/L. The “Blood glucose level at 15 min” value [7, 15] was 4.3 ± 0.4 mmol/L, the “Blood glucose level at 30 min” value [7, 15] was 3.3 ± 0.3 mmol/L and the “Blood glucose level prior” value [7, 15] was 7.9 ± 0.6 mmol/L. For the same substance, the “Blood glucose level at 15 min” value [7, 16] was 5.7 ± 0.3 mmol/L, the “Blood glucose level at 30 min” value [7, 16] was 4.3 ± 0.3 mmol/L and the “Blood glucose level prior” value [7, 16] was 6.9 ± 0.5 mmol/L. For the same substance, the “hypoglycemic activity (conclusion)” value ([7]; normal mice, intravenous injection) was “explicit hypoglycemic activity”.
“ASCNGVCSPFEMPPCGTSACRCIPVGLVVGYCRNPSG [Polypeptide B] (disulfide 15-32, 3-20, 7-22; listed as Pisum sativum)” was tested, and the “Blood glucose level at 15 min” value [1] was 5.5 ± 0.3 mmol/L, the “Blood glucose level at 30 min” value [1] was 4.6 ± 0.2 mmol/L and the “Blood glucose level at 45 min” value [1] was 3.3 ± 0.2 mmol/L. For the same substance, the “Blood glucose level at 60 min” value [1] was 2.4 ± 0.1 mmol/L and the “Blood glucose level prior” value [1] was 7.2 ± 0.6 mmol/L.
In the case of “ASCNGVCSPFEMPPCGSSACRCIPVGLVVGYCRHPSG (listed as Pisum sativum) [SEQ ID No. 72, extracted polypeptide with H at position 34, outside general formula (I); raised blood glucose]”, the “Blood glucose level at 15 min” value [2] was 8.91 ± 0.7 mmol/L, the “Blood glucose level at 30 min” value [2] was 10.4 ± 0.8 mmol/L and the “Blood glucose level prior” value [2] was 7.3 ± 0.6 mmol/L. For the same substance, the “hypoglycemic activity (conclusion)” value ([2]; normal mice, subcutaneous injection) was “no hypoglycemic activity”.
For Insulin, the “Blood glucose level at 15 min” value [8] was 5.2 ± 0.4 mmol/L, the “Blood glucose level at 30 min” value [8] was 3.6 ± 0.3 mmol/L and the “Blood glucose level at 45 min” value [8] was 2.7 ± 0.4 mmol/L. The “Blood glucose level at 60 min” value [8] was 2.2 ± 0.2 mmol/L, the “Blood glucose level prior” value ([8]; baseline) was 7.7 ± 0.6 mmol/L and the “Blood glucose level at 15 min” value [9] was 8.5 ± 0.7 mmol/L. The “Blood glucose level at 30 min” value [9] was 7.5 ± 0.4 mmol/L, the “Blood glucose level at 45 min” value [9] was 6.1 ± 0.4 mmol/L and the “Blood glucose level at 60 min” value [9] was 4.8 ± 0.3 mmol/L. The “Blood glucose level prior” value ([9]; baseline) was 14.3 ± 0.9 mmol/L, the “Blood glucose level at 15 min” value [10] was 8.8 ± 0.8 mmol/L and the “Blood glucose level at 30 min” value [10] was 7.1 ± 0.7 mmol/L. For the same substance, the “Blood glucose level at 45 min” value [10] was 6.4 ± 0.5 mmol/L, the “Blood glucose level at 60 min” value [10] was 5.0 ± 0.4 mmol/L and the “Blood glucose level prior” value ([10]; baseline) was 11.6 ± 1.1 mmol/L. The “Blood glucose level at 15 min” value [11] was 11.1 ± 0.9 mmol/L, the “Blood glucose level at 30 min” value [11] was 9.6 ± 0.7 mmol/L and the “Blood glucose level at 45 min” value [11] was 7.3 ± 0.8 mmol/L. The “Blood glucose level at 60 min” value [11] was 5.2 ± 0.4 mmol/L and the “Blood glucose level prior” value ([11]; baseline) was 13.4 ± 1.1 mmol/L.
